# Counter-ions that a name gives are not always drawn.
row,Compound,melting point
1,"NC(=O)c1ccc(F)c2c1CC(N(CCCc1c[nH]c3ccc(F)cc13)CC1CC1)CO2 (single isomer, unassigned; (-)) (as salt: hydrochloride) [Compound 5a, (−)-3-{(cyclopropylmethyl)[3-(5-fluoro-1H-indol-3-yl)propyl]amino}-8-fluorochromane-5-carboxamide]",123 °C (dec.)
2,"NC(=O)c1ccc(F)c2c1CC(NCCCCn1ccc3cccc(F)c31)CO2 (centres unmarked) (as salt: hydrochloride) [Compound 188, 8-Fluoro-3-{[4-(7-fluoro-1H-indol-1-yl)butyl]amino}chromane-5-carboxamide]",166 to 168 °C
3,"CNC(=O)c1ccc(F)c2c1C[C@H](N(CCCCc1c[nH]c3ccc(F)cc13)C1CCC1)CO2 (as salt: hydrochloride) [Compound 145a, (3S)-3-{cyclobutyl[4-(5-fluoro-1H-indol-3-yl)butyl]amino}-8-fluoro-N-methylchromane-5-carboxamide]",125 °C (dec.)
4,"CC(C1CC1)N(CCCc1c[nH]c2ccc(F)cc12)C1COc2c(F)ccc(C(N)=O)c2C1 (centres unmarked) (as salt: hydrochloride) [Compound 6, 3-{(1-cyclopropylethyl)[3-(5-fluoro-1H-indol-3-yl)propyl]amino}-8-fluorochromane-5-carboxamide]",124 °C (dec.)
5,"COc1cccc2c(CCCN(CC3CC3)C3COc4c(F)ccc(C(N)=O)c4C3)coc12 (centres unmarked) (as salt: hydrochloride) [Compound 165, 3-{(cyclopropylmethyl)[3-(7-methoxy-1-benzofuran-3-yl)propyl]amino}-8-fluorochromane-5-carboxamide]",125 to 132 °C
6,"CCN(CCCc1c[nH]c2c(OC)cccc12)C1COc2c(F)ccc(C(N)=O)c2C1 (centres unmarked) (as salt: hydrochloride) [Compound 101, 3-{ethyl[3-(7-methoxy-1H-indol-3-yl)propyl]amino}-8-fluorochromane-5-carboxamide]",148 to 153 °C (dec.)
7,"CCCN(CCCc1coc2c(OC)cccc12)C1COc2c(F)ccc(C(N)=O)c2C1 (centres unmarked) (as salt: hydrochloride) [Compound 163, 8-fluoro-3-[[3-(7-methoxy-1-benzofuran-3-yl)propyl](propyl)amino]chromane-5-carboxamide]",123 to 129 °C
8,"COC(=O)c1ccc(F)c2c1CC(N(CCCCc1c[nH]c3ccc(F)cc13)C1CCC1)CO2 (centres unmarked) (as salt: hydrochloride) [Compound 58, Methyl 3-{cyclobutyl[4-(5-fluoro-1H-indol-3-yl)butyl]amino}-8-fluorochromane-5-carboxylate]",115 °C (dec.)
9,"COc1ccc2[nH]cc(CCCN(C3CCC3)C3COc4c(F)ccc(C(N)=O)c4C3)c2c1 (centres unmarked) (as salt: hydrochloride) [Compound 107, 3-{cyclobutyl[3-(5-methoxy-1H-indol-3-yl)propyl]amino}-8-fluorochromane-5-carboxamide]",151 to 158 °C (dec.)
10,"COc1cccc2c1CC(N(CCCc1c[nH]c3ccc(C#N)cc13)C1CCC1)CO2 (centres unmarked) (as salt: hydrochloride) [Compound 46, 3-{3-[cyclobutyl(5-methoxy-3,4-dihydro-2H-chromen-3-yl)amino]propyl}-1H-indole-5-carbonitrile]",133 to 137 °C
11,"CCN(CCc1c[nH]c2ccc(F)cc12)C1COc2c(F)ccc(C(=O)NC)c2C1 (centres unmarked) (as salt: hydrochloride) [Compound 85, 3-{ethyl[2-(5-fluoro-1H-indol-3-yl)ethyl]amino}-8-fluoro-N-methylchromane-5-carboxamide]",125 °C (dec.)
12,"NC(=O)c1ccc(F)c2c1CC(N(CCCc1c[nH]c3ccc(Cl)cc13)C1CCC1)CO2 (centres unmarked) (as salt: hydrochloride) [Compound 117, 3-[[3-(5-chloro-1H-indol-3-yl)propyl](cyclobutyl)amino]-8-fluorochromane-5-carboxamide]",152 to 160 °C (dec.)
13,"NC(=O)c1ccc(F)c2c1CC(NCCCc1c[nH]c3c(Cl)cccc13)CO2 (centres unmarked) (as salt: hydrochloride) [Compound 109, 3-{[3-(7-chloro-1H-indol-3-yl)propyl]amino}-8-fluorochromane-5-carboxamide]",222 to 224 °C
14,"COc1cccc2c(CCCN(CC3CC3)C3COc4c(F)ccc(C(N)=O)c4C3)c[nH]c12 (centres unmarked) (as salt: hydrochloride) [Compound 103, 3-{(cyclopropylmethyl)[3-(7-methoxy-1H-indol-3-yl)propyl]amino}-8-fluorochromane-5-carboxamide]",152 to 158 °C (dec.)
15,"CCN(CCc1c[nH]c2ccc(F)cc12)C1CCc2cccc(OC)c2C1 (centres unmarked) (as salt: hydrochloride) [Compound 49, N-ethyl-N-[2-(5-fluoro-1H-indol-3-yl)ethyl]-N-(8-methoxy-1,2,3,4-tetrahydronaphthalen-2-yl)amine]",114 °C (dec.)
16,"CCCN(CCCc1c[nH]c2ccc(F)cc12)[C@@H]1CCc2cccc(OC)c2C1 (as salt: hydrochloride) [Compound 47b, (2R)-N-[3-(5-fluoro-1H-indol-3-yl)propyl]-8-methoxy-N-propyl-1,2,3,4-tetrahydronaphthalen-2-amine]",110 °C (dec.)

row,Compound,melting point
1,"CCCN(CCCc1c[nH]c2ccc(F)cc12)C1COc2c(C(N)=O)ccc(F)c2C1 (centres unmarked) (as salt: hydrochloride) [Compound 120, 5-fluoro-3-[[3-(5-fluoro-1H-indol-3-yl)propyl](propyl)amino]chromane-8-carboxamide]",123 °C (dec.)
2,"CCN(CCCc1c[nH]c2ccc(F)cc12)C1COc2c(F)ccc(C(=O)NC)c2C1 (centres unmarked) (as salt: hydrochloride) [Compound 89, 3-{ethyl[3-(5-fluoro-1H-indol-3-yl)propyl]amino}-8-fluoro-N-methylchromane-5-carboxamide]",118 °C (dec.)
3,"CCN(C(C)CCc1c[nH]c2ccc(F)cc12)C1COc2c(F)ccc(C(N)=O)c2C1 (single isomer, unassigned; (-)) (as salt: hydrochloride) [Compound 16a, (−)-3-{ethyl[3-(5-fluoro-1H-indol-3-yl)-1-methylpropyl]amino}-8-fluorochromane-5-carboxamide]",132 °C (dec.)
4,"N#Cc1ccc2[nH]cc(CCCN(CC3CC3)[C@H]3COc4c(F)ccc(C(N)=O)c4C3)c2c1 (as salt: hydrochloride) [Compound 98b, (3R)-3-[[3-(5-cyano-1H-indol-3-yl)propyl](cyclopropylmethyl)amino]-8-fluorochromane-5-carboxamide]",160 to 167 °C (dec.)
5,"NC(=O)c1ccc(F)c2c1CC(NCCc1c[nH]c3ccc(F)cc13)CO2 (centres unmarked) (as salt: hydrochloride) [Compound 75, 8-fluoro-3-{[2-(5-fluoro-1H-indol-3-yl)ethyl]amino}chromane-5-carboxamide]",134 °C (dec.)
6,"COc1cccc2c1CC(N(CCCc1c[nH]c3ccc(F)cc13)C1CC1)CO2 (centres unmarked) (as salt: hydrochloride) [Compound 41, N-cyclopropyl-N-[3-(5-fluoro-1H-indol-3-yl)propyl]-N-(5-methoxy-3,4-dihydro-2H-chromen-3-yl)amine]",115 °C (dec.)
7,"CNC(=O)c1ccc(F)c2c1C[C@@H](N(CCCCc1c[nH]c3ccc(F)cc13)C1CCC1)CO2 (as salt: hydrochloride) [Compound 145b, (3R)-3-{cyclobutyl[4-(5-fluoro-1H-indol-3-yl)butyl]amino}-8-fluoro-N-methylchromane-5-carboxamide]",125 °C (dec.)
8,"CNC(=O)c1ccc(F)c2c1CC(N(CCc1c[nH]c3ccc(F)cc13)CC1CC1)CO2 (centres unmarked) (as salt: hydrochloride) [Compound 86, 3-{(cyclopropylmethyl)[2-(5-fluoro-1H-indol-3-yl)ethyl]amino}-8-fluoro-N-methylchromane-5-carboxamide]",138 °C (dec.)
9,"COc1cccc2c1CC(N(CCCc1cn(C)c3ccc(F)cc13)CC1CC1)CO2 (centres unmarked) (as salt: hydrochloride) [Compound 38, N-(cyclopropylmethyl)-N-[3-(5-fluoro-1-methyl-1H-indol-3-yl)propyl]-N-(5-methoxy-3,4-dihydro-2H-chromen-3-yl)amine]",86 °C (dec.)
10,"COc1cccc2c(CCCN(C3CCC3)C3COc4c(F)ccc(C(N)=O)c4C3)c[nH]c12 (centres unmarked) (as salt: hydrochloride) [Compound 102, 3-{cyclobutyl[3-(7-methoxy-1H-indol-3-yl)propyl]amino}-8-fluorochromane-5-carboxamide]",156 to 162 °C (dec.)
11,"NC(=O)c1ccc(F)c2c1OCC(N(CCCc1c[nH]c3ccc(F)cc13)CC1CC1)C2 (centres unmarked) (as salt: hydrochloride) [Compound 121, 3-{(cyclopropylmethyl)[3-(5-fluoro-1H-indol-3-yl)propyl]amino}-5-fluorochromane-8-carboxamide]",123 °C (dec.)
12,"NC(=O)c1ccc(F)c2c1CC(N(CCCc1c[nH]c3ccc(F)cc13)Cc1ccccc1)CO2 (centres unmarked) (as salt: hydrochloride) [Compound 74, 3-{benzyl[3-(5-fluoro-1H-indol-3-yl)propyl]amino}-8-fluorochromane-5-carboxamide]",142 to 150 °C (dec.)
13,"CCN(CCCc1c[nH]c2c(F)cc(F)cc12)C1COc2c(C(N)=O)ccc(F)c2C1 (centres unmarked) (as salt: hydrochloride) [Compound 132, 3-[[3-(5,7-difluoro-1H-indol-3-yl)propyl](ethyl)amino]-5-fluorochromane-8-carboxamide]",125 °C (dec.)
14,"CNC(=O)c1ccc(F)c2c1CC(N(CCCCc1c[nH]c3ccc(F)cc13)C1CCC1)CO2 (centres unmarked) (as salt: hydrochloride) [Compound 95, 3-{cyclobutyl[4-(5-fluoro-1H-indol-3-yl)butyl]amino}-8-fluoro-N-methylchromane-5-carboxamide]",123 °C (dec.)
15,"NC(=O)c1ccc(F)c2c1CC(N(CCCc1c[nH]c3cc(F)ccc13)CC1CC1)CO2 (centres unmarked) (as salt: hydrochloride) [Compound 52a, 3-{(cyclopropylmethyl)[3-(6-fluoro-1H-indol-3-yl)propyl]amino}-8-fluorochromane-5-carboxamide]",123 °C (dec.)
16,"COC(=O)c1ccc(F)c2c1C[C@H](NCCCCc1c[nH]c3ccc(F)cc13)CO2 (as salt: hydrochloride) [Compound 57a, Methyl (3S)-8-fluoro-3-{[4-(5-fluoro-1H-indol-3-yl)butyl]amino}chromane-5-carboxylate]",240 °C (dec.)

# Reference: US20050032873A1, “3-Amino chroman and 2-amino tetralin derivatives” (Wyeth, priority 2003, published 2005)
